Data from patent publication US20180200257A1, “METHODS FOR THE TREATMENT OF INFLAMMATORY DISORDERS” (Galapagos NV, priority 2015, published 2018).

System: Subjects With Active Crohn's Disease With Evidence of Mucosal Ulceration
Experiment: Study 3 - Fecal calprotectin levels
Format: in vivo, human
Settings: 200 mg; week 10; LOCF
Source text: Double-Blind, Randomized, Placebo-Controlled, Multi-Centre Study to Investigate the Efficacy and Safety of Compound 1 in Subjects With Active Crohn's Disease With Evidence of Mucosal Ulceration.
This is a double-blind, randomized, placebo-controlled, multi-centre Phase 2 study to investigate the efficacy and safety of Compound 1 administered once daily for the treatment of active CD with evidence of mucosal ulceration. The pharmacokinetics (including a PK substudy) and pharmacodynamics of Compound 1 and metabolite in CD will also be characterised.
A total of 180 eligible subjects will be randomized to receive Compound 1 or placebo in addition to their stable background treatment (eg, corticosteroids, aminosalicylates, or CD-related antibiotics). The study will consist of 2 parts, with total treatment duration of 20 weeks. Randomization in Part 1 will be stratified according the subject's previous anti-TNF exposure/response, CRP level at Screening, and oral corticosteroid use at visit Day −1.
After the first 10 weeks of treatment in Part 1, patients will be re-randomized for Part 2 as shown in the diagram below and will be stratified according to the subject's clinical response, previous anti-TNF exposure/response, and oral corticosteroid use at visit Day -1.
Fecal calprotectin is a protein belonging to the S100 family and occurring in large amounts in neutrophil granulocytes, where it accounts for 5% of total proteins and 60% of cytoplasm proteins. When inflammatory processes occur, calprotectin is released due to the degranulation of neutrophil granulocytes.
In bowel inflammation, calprotectin may be detected in the stool. The fecal levels provide direct information about the inflammation and is determined using a Calprest® enzyme immunoassay diagnostic kit (Eurospital Spa—Via Flavia 122-34147 Trieste—Italy; ref 9031).

O=C(Nc1nc2cccc(-c3ccc(CN4CCS(=O)(=O)CC4)cc3)n2n1)C1CC1 [Compound 1, cyclopropanecarboxylic acid {5-[4-(1,1-dioxo-thiomorpholin-4-ylmethyl)-phenyl]-[1,2,4]triazolo[1,5-a]pyridin-2-yl}-amide]
Fecal calprotectectin normalizing high to normal (<50 mg/kg), % subjects normalizing: 12%
Fecal calprotectectin normalizing high to normal (>250 mg/kg to ≤250 mg/kg), % subjects normalizing: 44%
Fecal calprotectin mean, % CFB: 73%
Fecal calprotectin mean, CFB: -86.7 mg/kg
Fecal calprotectin median, % CFB: −29%
Fecal calprotectin median, CFB: -75.5 mg/kg
